Measured values published in the supplement of paper PMC7108870.

Columns and labels:
[1] = test system: HEK293sieSTAT3(Y640F); test: drug sensitivity score (DSS), cytotoxicity CellTox Green (DSS (dimensionless)); higher = more cytotoxic; extreme values may be limits of the assay; conditions: 72 h; STAT3 variant: Y640F (constitutively active)
Method in brief: (§1)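 In 384-well plates with acoustically pre-plated compounds (5 concentrations, 10-fold dilutions), 20 μl of HEK293 cells at 100,000 cells/ml were added; the cells overexpressed wild-type or mutant STAT3 and carried a STAT3-dependent luciferase reporter. Incubation lasted 72 hours at 37°C and 5% CO2 before sequential CellTox Green (485/520 nm) and CellTiter-Glo reads on a PHERAstar FS. After normalisation to negative and positive control wells, Breeze was used to derive a drug sensitivity score from the dose-response curve area.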

[2] = test system: HEK293sieSTAT3(wt); test: as above; conditions: 72 h; STAT3 variant: wild type
Method in brief: as §1

[3] = test system: HEK293sieSTAT3(Y640F); test: drug sensitivity score (DSS), viability CellTiter-Glo (DSS (dimensionless)); higher = more growth inhibition; extreme values may be limits of the assay; conditions: 72 h; STAT3 variant: Y640F (constitutively active)
Method in brief: as §1

[4] = test system: HEK293sieSTAT3(wt); test: as above; conditions: 72 h; STAT3 variant: wild type
Method in brief: as §1

CC(=O)O[C@@]12CO[C@@H]1C[C@H](O)[C@@]1(C)C(=O)[C@H](O)C3=C(C)[C@@H](OC(=O)[C@H](O)[C@@H](NC(=O)OC(C)(C)C)c4ccccc4)C[C@@](O)([C@@H](OC(=O)c4ccccc4)[C@H]21)C3(C)C [Docetaxel] (top concentration tested 1000 nM) showed a drug sensitivity score [1] of 1.47, a drug sensitivity score [2] of 11.3 and a drug sensitivity score [3] of 22.8. For the same molecule, the drug sensitivity score [4] was 31.

Cc1ccc(-n2nc(C(C)(C)C)cc2NC(=O)Nc2ccc(OCCN3CCOCC3)c3ccccc23)cc1 [Doramapimod] (top concentration tested 10000 nM) was tested, and the drug sensitivity score [1] was 0.14, the drug sensitivity score [2] was 0 and the drug sensitivity score [3] was 5.05. For the same molecule, the drug sensitivity score [4] was 3.87.

In the case of CN1CCN(c2ccc3nc(-c4c(N)c5c(F)cccc5[nH]c4=O)[nH]c3c2)CC1 [Dovitinib] (top concentration tested 10000 nM), the drug sensitivity score [1] is reported as 0, the drug sensitivity score [2] is reported as 0 and the drug sensitivity score [3] is reported as 0.03. The drug sensitivity score [4] was 0.

COc1cccc2c1C(=O)c1c(O)c3c(c(O)c1C2=O)C[C@@](O)(C(=O)CO)C[C@@H]3O[C@H]1C[C@H](N)[C@H](O)[C@H](C)O1 [Doxorubicin] (top concentration tested 1000 nM) was tested, and the drug sensitivity score [1] was 0, the drug sensitivity score [2] was 0 and the drug sensitivity score [3] was 18.6. For the same molecule, the drug sensitivity score [4] was 19.3.

For C[C@H](Nc1ncnc2nc[nH]c12)c1cc2cccc(Cl)c2c(=O)n1-c1ccccc1 [Duvelisib] (top concentration tested 500 nM), the drug sensitivity score [1] was 0, the drug sensitivity score [2] was 0 and the drug sensitivity score [3] was 3.95. The drug sensitivity score [4] was 2.36.

In the case of Cc1cc(Nc2cc(N3CCN(C)CC3)nc(/C=C/c3ccccc3)n2)n[nH]1 [ENMD-2076] (top concentration tested 10000 nM), the drug sensitivity score [1] is reported as 0.61, the drug sensitivity score [2] is reported as 5.35 and the drug sensitivity score [3] is reported as 9.67. The drug sensitivity score [4] was 10.7.

Cc1cc(C)c(CNC(=O)c2cc(-c3ccc(CN4CCOCC4)cc3)cc3c2cnn3C2CCCC2)c(=O)[nH]1 [EPZ-5687] (top concentration tested 10000 nM) showed a drug sensitivity score [1] of 0, a drug sensitivity score [2] of 0 and a drug sensitivity score [3] of 0. For the same molecule, the drug sensitivity score [4] was 0.

With COC(=O)N[C@@H](C)CNc1nccc(-c2cn(C(C)C)nc2-c2cc(Cl)cc(NS(C)(=O)=O)c2F)n1 [Encorafenib] (top concentration tested 1000 nM) the drug sensitivity score [1] was 0, the drug sensitivity score [2] was 0 and the drug sensitivity score [3] was 0.92. It also gave a drug sensitivity score [4] of 3.05.

In the case of Nc1ccccc1NC(=O)c1ccc(CNC(=O)OCc2cccnc2)cc1 [Entinostat] (top concentration tested 10000 nM), the drug sensitivity score [1] is reported as 0.1, the drug sensitivity score [2] is reported as 1.29 and the drug sensitivity score [3] is reported as 8.12. It also gave a drug sensitivity score [4] of 8.98.

For c1cn2cc(-c3ccc4cn[nH]c4c3)nc(Nc3ccc(N4CCOCC4)cc3)c2n1 [Entospletinib] (top concentration tested 5000 nM), the drug sensitivity score [1] was 0, the drug sensitivity score [2] was 0 and the drug sensitivity score [3] was 0. For the same molecule, the drug sensitivity score [4] was 0.

CNC(=O)c1ccc(N2C(=S)N(c3ccc(C#N)c(C(F)(F)F)c3)C(=O)C2(C)C)cc1F [Enzalutamide] (top concentration tested 10000 nM) was tested, and the drug sensitivity score [1] was 0, the drug sensitivity score [2] was 0 and the drug sensitivity score [3] was 0.6. For the same molecule, the drug sensitivity score [4] was 0.

Cn1cc(C2=C(c3cn(C4CCN(Cc5ccccn5)CC4)c4ccccc34)C(=O)NC2=O)c2ccccc21 [Enzastaurin] (top concentration tested 10000 nM) was tested, and the drug sensitivity score [1] was 0, the drug sensitivity score [2] was 0 and the drug sensitivity score [3] was 1.73. It also gave a drug sensitivity score [4] of 1.34.

Molecule NS(=O)(=O)NCCNc1nonc1/C(=N/O)Nc1ccc(F)c(Br)c1 [Epacadostat] (top concentration tested 10000 nM) has a drug sensitivity score [1] of 0, a drug sensitivity score [2] of 0 and a drug sensitivity score [3] of 1.76. For the same molecule, the drug sensitivity score [4] was 0.37.

C#Cc1cccc(Nc2ncnc3cc(OCCOC)c(OCCOC)cc23)c1 [Erlotinib] (top concentration tested 10000 nM) was tested, and the drug sensitivity score [1] was 0, the drug sensitivity score [2] was 0 and the drug sensitivity score [3] was 3.21. It also gave a drug sensitivity score [4] of 2.99.

In the case of C[C@]12CC[C@@H]3c4ccc(OC(=O)N(CCCl)CCCl)cc4CC[C@H]3[C@@H]1CC[C@@H]2O [Estramustine] (top concentration tested 10000 nM), the drug sensitivity score [1] is reported as 0, the drug sensitivity score [2] is reported as 0.3 and the drug sensitivity score [3] is reported as 0.65. It also gave a drug sensitivity score [4] of 0.

COc1cc([C@@H]2c3cc4c(cc3[C@@H](O[C@@H]3O[C@@H]5CO[C@@H](C)O[C@H]5[C@H](O)[C@H]3O)[C@H]3COC(=O)[C@H]23)OCO4)cc(OC)c1O [Etoposide] (top concentration tested 10000 nM) gave a drug sensitivity score [1] of 3.46, a drug sensitivity score [2] of 7.94 and a drug sensitivity score [3] of 17.6. The drug sensitivity score [4] was 20.

Molecule CO[C@H]1C[C@@H]2CC[C@@H](C)[C@@](O)(O2)C(=O)C(=O)N2CCCC[C@H]2C(=O)O[C@H]([C@H](C)C[C@@H]2CC[C@@H](OCCO)[C@H](OC)C2)CC(=O)[C@H](C)/C=C(\C)[C@@H](O)[C@@H](OC)C(=O)[C@H](C)C[C@H](C)/C=C/C=C/C=C/1C [Everolimus] (top concentration tested 100 nM) has a drug sensitivity score [1] of 0, a drug sensitivity score [2] of 0 and a drug sensitivity score [3] of 8.23. The drug sensitivity score [4] was 11.3.

In the case of C=C1C[C@@H]2[C@H](CC[C@]3(C)C(=O)CC[C@@H]23)[C@@]2(C)C=CC(=O)C=C12 [Exemestane] (top concentration tested 10000 nM), the drug sensitivity score [1] is reported as 0, the drug sensitivity score [2] is reported as 0 and the drug sensitivity score [3] is reported as 3.39. The drug sensitivity score [4] was 3.65.

Cc1nc(C(=O)NCC(=O)O)c(O)c2ccc(Oc3ccccc3)cc12 [FG-4592] (top concentration tested 10000 nM) gave a drug sensitivity score [1] of 0, a drug sensitivity score [2] of 0 and a drug sensitivity score [3] of 1.3. For the same molecule, the drug sensitivity score [4] was 2.23.

Molecule CCn1c(=O)c(-c2ccc(Cl)cc2Cl)cc2cnc(Nc3ccc(N4CCNCC4)c(F)c3)nc21 [FRAX486] (top concentration tested 5000 nM) has a drug sensitivity score [1] of 0, a drug sensitivity score [2] of 6.75 and a drug sensitivity score [3] of 6.38. The drug sensitivity score [4] was 9.57.

O=S(=O)(c1cccc2cnccc12)N1CCCNCC1 [Fasudil] (top concentration tested 50000 nM) showed a drug sensitivity score [1] of 2.11, a drug sensitivity score [2] of 4.45 and a drug sensitivity score [3] of 4.74. For the same molecule, the drug sensitivity score [4] was 3.23.
